Experimental findings from ChEMBL document CHEMBL5727912, “Benzenesulfonamide compounds and their use as therapeutic agents” (2020) are described below.

A short description of assay [1]: In Vitro Assay: In general, Trex HEK293 cells were stably transfected with an inducible expression vector containing the full-length cDNA coding for the desired human sodium channel α-subunit and with an expression vector containing full length cDNA coding for the β1-subunit. Sodium channel expressing cell lines were induced with tetracycline (1 μg/mL) and plated on 384-well PDL-coated plates at ….

Experiment in assay [2]: as above
The source holds these as a separate data set.

For `C[C@H](c1c(F)ccc(F)c1CNc1cc(F)c(S(=O)(=O)Nc2cscn2)c(F)c1)N1C2CCC1CC2` (single isomer, unassigned), the IC50 in assay [1] and in assay [2] was over 30 µM throughout.
Turning to `C[C@@H](c1c(F)ccc(F)c1CNc1cc(F)c(S(=O)(=O)Nc2cscn2)c(F)c1)N1C2CCC1CC2` (single isomer, unassigned), the IC50 in assay [1] and in assay [2] was over 30 µM each time.

As a reminder, the IC50 is the concentration that inhibits the measured activity by half. High values mean lower potency, low ones higher potency.
